From patent publication US12534696B2, “Systems and methods for immobilizing extracellular matrix material on organ on chip, multilayer microfluidics microdevices, and three-dimensional cell culture systems” (THE TRUSTEES OF THE UNIVERSITY OF PENNSYLVANIA, priority 2015, dated 2026)

Experiments:
human lung fibroblasts [1] = assay: Serum-induced fibrosis in the biomimetic five-layer lung fibrosis model; assay type: cell-based; settings: 2 μM PP2 added to medium 24 hours after assembly and maintained; cells cultured in 2D with 2% serum, then 0.2% in the model
human lung fibroblasts [2] = assay: Agent-induced injury (fibrotic response) in the five-layer biomimetic lung model; assay type: cell-based; settings: SHH added exogenously at 500 ng/ml
Method: In order to test whether the cells in the gel layer can be fed via the channels, one experiment was conducted with only cells in the gel layer (FIG. 39). In particular, human lung fibroblasts and THP-1 macrophage cells were included in the gel layer. The gel was created by adding collegen to physiological aqueous buffer. Additionally or alternatively, any aqueous buffer (e.g., phosphate buffered saline (PBS) buffer) can be used. The aqueous buffer can be kept at a concentration between 0.1 and 2 mg/ml and kept at 4° C. Human lung fibroblasts (100 K cells/ml) and THP-1 macrophage (50 K cells/ml) cells were added to the gel during the liquid phase. The side of the membranes facing the chamber slab (e.g. 242 and 251) were treated with sulfo-sanpah to promote collagen/ECM anchorage. The lower channel slab, lower membrane, and chamber slab were stacked. The gel was then pipetted into the chamber (e.g., 231). After the upper membrane and upper channel slab was placed on top, the biomimetic organ model was clamped and the biomimetic organ model was placed in the incubator at 37° C. The biomimetic organ model was incubated for five days. For continuous perfusion of culture medium at 200 μL/hr in each channel, FGM-2 can be used as the medium having a reduced serum (e.g., between 0-2% and 2%).
In this study, the development of the organ injury model was examined. […]

Compound | effect on serum-induced fibrosis (FIG. 49) (human lung fibroblasts [1]) | induction of fibrotic response (FIG. 48) (human lung fibroblasts [2])
CC(C)(C)n1nc(-c2ccc(Cl)cc2)c2c(N)ncnc21 [PP2] | reduced fibrosis | 
sonic hedgehog [SHH] |  | a fibrotic response can be induced
